Consider 29 molecules from patent US5556858A, “Cis-2-[(4-heteroaryl-1-piperazinyl)alkyl] hexahydro-1H-isoindole-1,3 (2H)-diones and related compounds and their therapeutic utility” (Hoechst-Roussel Pharmaceuticals, Inc., priority 1995, dated 1996).

In general, ED50 refers to the midpoint of the dose-response relation.

Structures can show the parent of a compound that is named as a salt.

One assay concerns apomorphine climbing. The experiment in a line: climbing mice assay (antipsychotic activity). The class given is in vivo, mice (CK-1 male). Particulars: Mus musculus; ip; apomorphine 1.5 mg/kg subcutaneously; climbing score vs control. How it is done: Subject […] male mice (23-27 grams) are group-housed under standard laboratory conditions. The mice are individually placed in wire mesh stick cages (4"×10") and are allowed one hour for adaption and exploration of the new environment.
For evaluation of climbing, 3 readings are taken at 10, 20, and 30 minutes-after apomorphine administration according to the following scale: […]
Mice consistently climbing before the injection of apomorphine are discarded.
With full-developed apomorphine climbing, the animals are hanging on to the cage walls, rather motionless, over long periods of time. By contrast, climbs due to mere motor stimulation usually only last a few seconds.
The climbing scores are individually totaled (maximal score: 6 per mouse over 3 readings) and the total score of the control group (vehicle intraperitoneally-apomorphine subcutaneously) is set to 100%.
Take `COc1cc(C(C)=O)ccc1OCCCN1CCN(c2n[nH]c3ccccc23)CC1` [1-[4-[3-[4-(1H-indazol-3-yl)-1-piperazinyl]propoxy]-3-methoxyphenyl]ethanone]: the 50% effect level (ED50) was put at a dose of 0.98 mg/kg.
The molecule `COc1cc(C(C)=O)ccc1OCCCN1CCC(c2noc3cc(F)ccc23)CC1` [1-[4-[3-[4-(6-fluoro-1,2-benzisoxazol-3-yl)-1-piperidinyl]propoxy]-3-methoxyphenyl]ethanone] gave an ED50 of 0.095 mg/kg.
In turn, `Fc1ccc2c(c1)CN(CCN1CCC(c3n[nH]c4cc(F)ccc34)CC1)C2.O=C(O)/C=C\C(=O)O.O=C(O)/C=C\C(=O)O` [4-(6-Fluoro-1H-indazol-3-yl)-1-[2-(5-fluoro-2,3-dihydro-1H-isoindol-2-yl)ethyl]piperidine dimaleate] showed an ED50 of 0.27 mg/kg.
On the same count and under the same terms, with `COc1cccc2c1C(=O)N(CCN1CCC(c3noc4cc(F)ccc34)CC1)C2=O` [N-[2-[4-(6-fluoro-1,2-benzisoxazol-3-yl)-1-piperidinyl]ethyl]-3-methoxyphthalimide] the figure was 0.16 mg/kg; with `Cc1ccc2c(c1)C(=O)N(CCN1CCN(c3n[nH]c4cc(F)ccc34)CC1)C2=O` [N-[2-[4-(6-Fluoro-1H-indazol-3-yl)-1-piperazinyl]ethyl]-4-methylphthalimidedihydrochloride], 0.37 mg/kg.
On the same count and under the same terms, for `CC(=O)c1ccc(CCCCN2CCC(c3noc4cc(F)ccc34)CC2)cc1` [1-[4-(4'-Acetophenyl)butyl]-4-(6-fluoro-1,2-benzisoxazol-3-yl)piperidine] the value was 0.34 mg/kg; for `CC1c2ccccc2C(=O)N1CCN1CCC(c2noc3cc(F)ccc23)CC1` (centres unmarked) [2-[2-[4-(6-Fluoro-1,2-benzisoxazol-3-yl)-1-piperidinylethyl]-2,3-dihydro-3-methyl-1H-isoindol-1-one hydrochloride], 1.17 mg/kg; for `COc1cc(C(C)=O)ccc1OCCCCN1CCC(c2noc3ccccc23)CC1` [1-[4-[4-[4-(1,2-Benzisoxazol-3-yl)-1-piperidinyl]butoxy]-3-methoxyphenyl]ethanone], 1.6 mg/kg.
With `C=C1c2ccccc2C(=O)N1CCN1CCC(c2noc3cc(F)ccc23)CC1.Cl` [2,3-Dihydro-2-[2-[4-(6-fluoro-1,2-benzisoxazol-3-yl)-1-piperidinyl]ethyl]-3-methylene-1H-isoindol-1-one hydrochloride], the 50% effect level (ED50) was put at a dose of 0.64 mg/kg.
Same read-out and setting: with `CCCCCCCCCC(=O)OCCCCN1CCC(c2noc3cc(F)ccc23)CC1.O=C(O)/C=C/C(=O)O` [4-[4-(6-Fluoro-1,2-benzisoxazol-3-yl)-1-piperidinyl]butyl decanoate fumarate] the figure was 3.31 mg/kg.
Still for that read-out and setting: with `Cl.Cl.Fc1ccc2c(C3CCN(CCN4Cc5ccccc5C4)CC3)noc2c1` [4-(6-Fluoro-1,2-benzisoxazol-3-yl)-1-[2-(2,3-dihydro-1H-isoindol-2-yl)ethyl]-piperidine dihydrochloride] the figure was 0.36 mg/kg; with `COc1cc(C(C)=O)ccc1OCCCN1CCC(c2noc3ccccc23)CC1` [1-[4-[3-[4-(1,2-benzisoxazol-3-yl)-1-piperidinyl]propoxy]-3-methoxyphenyl]ethanone], 0.67 mg/kg.
The same measure, in the same setting: with `Fc1ccc2c(N3CCN(CCN4Cc5ccccc5C4)CC3)n[nH]c2c1.O=C(O)/C=C\C(=O)O.O=C(O)/C=C\C(=O)O` [4-(6-Fluoro-1H-indazol-3-yl)-1-[2-(2,3-dihydro-1H-isoindol-2-yl)-ethyl]piperazine dimaleate] the figure was 0.25 mg/kg; with `O=C(CN1CCC(c2noc3cc(F)ccc23)CC1)N1Cc2ccccc2C1.O=C(O)/C=C/C(=O)O` [2-[4-(6-Fluoro-1,2-benzisoxazol-3-yl)-1-piperidinyl]-1-(2,3-dihydro-1H-isoindol-2-yl)ethanone fumarate], 2.33 mg/kg.
Regarding `COc1cc(C(C)=O)ccc1OCCCCN1CCC(c2noc3cc(F)ccc23)CC1` [1-[4-[4-[4-(6-Fluoro-1,2-benzisoxazol-3-yl)-1-piperidinyl]butoxy]-3-methoxyphenyl]ethanone], it took a dose of 0.68 mg/kg to reach the 50% effect level (ED50).
The same measure, in the same setting: for `O=C1c2ccccc2C(=O)N1CCN1CCC(c2noc3cc(F)ccc23)CC1` [N-[2-[4-(6-Fluoro-1,2-benzisoxazol-3-yl)-1-piperidinyl]ethyl]phthalimide] the value was 5 mg/kg; for `Cc1cccc2c1CN(CCN1CCN(c3n[nH]c4cc(F)ccc34)CC1)C2` [4-(6-Fluoro-1H-indazol-3,yl)-1-[2-(2.3-dihydro-4-methyl-1H-isoindol-2-yl)ethyl]piperazine difumarate], 0.35 mg/kg.
Still for that read-out and setting: for `Cl.O=C1c2ccccc2C(=O)N1CCN1CCC(c2n[nH]c3cc(F)ccc23)CC1` [N-[2-[4-(6-Fluoro-1H-indazol-3-yl)-1-piperidinyl]ethyl]phthalimide hydrochloride] the value was 0.8 mg/kg; for `Cc1nc2ccccc2c(=O)n1CCN1CCC(c2noc3cc(F)ccc23)CC1` [3-[2-[4-(6-Fluoro-1,2-benzisoxazol-3-yl)-1-piperidinyl]ethyl]-2-methyl-3H-quinazolin-4-one], 0.61 mg/kg.
Same read-out and setting: for `O=C1c2ccccc2C(=O)N1CCN1CCN(c2n[nH]c3cc(F)ccc23)CC1` [N-[2-[4-(6-Fluoro-1H-indazol-3.-yl)-1-piperazinyl]ethyl]phthalimide] the value was 1.2 mg/kg; for `Nc1ccc2c(c1)C(=O)N(CCN1CCC(c3noc4cc(F)ccc34)CC1)C2=O.O=C(O)/C=C/C(=O)O` [N-[2-[4-(6-Fluoro-1,2-benzisoxazol-3-yl)-1-piperidinyl]ethyl]-4-aminophthalimide fumarate], 0.097 mg/kg.
Molecule `Fc1ccc2c(c1)CN(CCN1CCN(c3n[nH]c4cc(F)ccc34)CC1)C2.O=C(O)/C=C\C(=O)O.O=C(O)/C=C\C(=O)O` [4-(6-Fluoro-1H-indazol-3-yl)-1-[2-(5-fluoro-2,3-dihydro-1H-isoindol-2-yl)-ethyl]piperazine dimaleate] yielded an ED50 of 0.16 mg/kg.
The same measure, in the same setting: with `Fc1ccc2c(C3CCN(CCN4CCCc5ccccc54)CC3)noc2c1.O=C(O)/C=C/C(=O)O` [N-[2-[4-(6-Fluoro-1,2-benzisoxazol-3-yl)-1-piperidinyl]ethyl]-1,2,3,4-tetrahydroquinoline fumarate] the figure was 1.19 mg/kg; with `Cl.Cl.NCCCN1CCC(c2noc3cc(F)ccc23)CC1` [1-(3-Aminopropyl)-4-(6-fluoro-1,2-benzisoxazol-3-yl)piperidine dihydrochloride], 22.6 mg/kg.
Still for that read-out and setting: for `COc1cc(C(C)=O)ccc1OCCCN1CCC(c2nsc3cc(F)ccc23)CC1.Cl` [1-[4-[3-[4-(6-Fluoro-1,2-benzisothiazol-3-yl)-1-piperidinyl]propoxy]-3-methoxy-phenyl]ethanone hydrochloride] the value was 0.16 mg/kg; for `Cl.O=C1c2ccccc2C(=O)N1CCN1CCC(c2nsc3cc(F)ccc23)CC1` [N-[2-[4-(6-Fluoro-1,2-benzisothiazol-3-yl)-1-piperidinyl]ethyl]phthalimide hydrochloride], 0.38 mg/kg.

The assay is the same for the next values; noted with them: ip; apomorphine 1.5 mg/kg subcutaneously; climbing score vs control.
Take `CC(CCN1C(=O)c2ccccc2C1=O)N1CCC(c2noc3cc(F)ccc23)CC1.Cl` (centres unmarked) [N,[3-[4-(6-Fluoro-1,2-benzisoxazol-3-yl)-1-piperidinyl]butyl]phthalimide hydrochloride]: the “CLIMBING MOUSE ASSAY ED50” value is recorded as 0.7 mg/kg.

The subject of the next assay is phenylquinone induced writhing. Kind of assay: phenyl p-quinone writhing assay (analgesia). The class given is in vivo, mice. Particulars: Mus musculus, read-out: INHIBITION OF PHE[…] WRITHING ED50; sc; dose effecting approximately 50% inhibition of writhing. From the text: Some of the compounds of the present invention are also useful as analgetics due to their ability to alleviate pain in mammals. […] Exptl. Biol. Med., 95:729 (1957). Thus, for instance, the subcutaneous dose effecting an approximately 50% inhibition of writhing (ED50) in mice produced in this assay is as shown in Table 2.
On the technique in general: Writhing tests count abdominal constrictions after an irritant is injected.
Turning to `CCC(=O)O[C@](Cc1ccccc1)(c1ccccc1)[C@H](C)CN(C)C` [Propoxyphene, reference compound], the ED50 worked out at 3.9 mg/kg.
Still for that read-out and setting: with `CC(C)=CCN1CCC2(C)c3cc(O)ccc3CC1C2C` (centres unmarked) [Pentazocine, reference compound] the figure was 1.3 mg/kg.

The same assay, now with this note: Mus musculus; sc; dose effecting approximately 50% inhibition of writhing.
`COc1cc(C(C)=O)ccc1OCCCN1CCN(c2n[nH]c3ccccc23)CC1` [1-[4-[3-[4-(1H-indazol-3-yl)-1-piperazinyl]propoxy]-3-methoxyphenyl]ethanone] returned an ED50 of 0.06 mg/kg.
On the same count and under the same terms, with `COc1cc(C(C)=O)ccc1OCCCN1CCC(c2noc3cc(F)ccc23)CC1` [1-[4-[3-[4-(6-fluoro-1,2-benzisoxazol-3-yl)-1-piperidinyl]propoxy]-3-methoxyphenyl]ethanone] the figure was 0.03 mg/kg; with `COc1cc(C(C)=O)ccc1OCCCN1CCC(c2noc3ccccc23)CC1` [1-[4-[3-[4-(1,2-benzisoxazol-3-yl)-1-piperidinyl]propoxy]-3-methoxyphenyl]ethanone], 0.17 mg/kg.
